Assays:
[1] = Inhibition of Influenza A virus H3N2 A/X-31 hemagglutinin 3 E572K mutant expressed in HeLa cells assessed as polykaryon formation preincubated for 15 mins and further incubated for 15 mins with acidic buffer containing compounds at pH 5.2 by giemsa staining based microscopic analysis; assay type: cell-based, Influenza A virus (A/X-31(H3N2))
[2] = Inhibition of Influenza A virus H3N2 A/X-31 hemagglutinin 3 D1122N expressed in HeLa cells assessed as polykaryon formation preincubated for 15 mins and further incubated for 15 mins with acidic buffer containing compounds at pH 5.6 by giemsa staining based microscopic analysis; assay type: cell-based, Influenza A virus (A/X-31(H3N2))

SMILES	EC50 [1]	EC50 [2]
Cc1nc2sccn2c1C(=O)NN1C(=O)C(C)SC12CCC(C)CC2 (centres undefined)	9 µM	> 25 µM
Cc1c(C(=O)NN2C(=O)C(C)SC23CCC(C)CC3)[nH]c2ccc(Cl)cc12 (centres undefined)	≥ 13 µM	> 25 µM
Cc1c(C(=O)NN2C(=O)C(C)SC23CCCC(C)C3)[nH]c2ccc(Cl)cc12 (centres undefined)	> 25 µM	> 25 µM
CCC1CCC2(CC1)SC(C)C(=O)N2NC(=O)c1[nH]c2ccc(Cl)cc2c1C (centres undefined)	> 25 µM	≥ 21 µM
Cc1c(C(=O)NN2C(=O)C(C)SC23CCCCC3)[nH]c2ccc(Cl)cc12 (centres undefined)	> 25 µM	> 25 µM
CC(C)(C)c1cc(O)ccc1O [E319]	12 µM	> 400 µM
CCOC(=O)c1c(CSc2ccccc2)n(C)c2cc(Br)c(O)c(CN(C)C)c12 [UMIFENOVIR]	> 200 µM	> 200 µM
